Structures can show the parent of a compound that is named as a salt.

The test system of assay [1] is THP-1 cells. The experiment in a line: Activin A and BAFF mRNA and protein in THP-1 cells, RT-PCR and ELISA. Format: cell-based. The protocol:
FIGS. 5A-5F depict the expression of Activin A/BAFF induced by P4N treatments. (A) P4N induced Activin A or BAFF expression in human PBMCs as determined by RT-PCR. S1-S5 display different individual blood samples collected from 5 different human donors; N, no treatment; P, P4N-treatment (3 μM). The change in Activin A and BAFF expression (mean of 5 patients) relative to the control (NC) is plotted as a histogram (B) The effect of increasing dosages of P4N for 12 h on mRNA and protein levels of Activin A or BAFF in THP-1 cells was analyzed by RT-PCR and ELISA. (C) The effect of 6 μM P4N on mRNA and protein levels of Activin A or BAFF in THP-1 cells was determined at a different time period. (D) The effect of different inhibitors on Activin A-induced BAFF expression was examined. The expression of BAFF mRNA in inhibitor-treated THP-1 cells was determined by RT-PCR, and (E) BAFF protein secretion was measured by ELISA. (F) The effect of THP-1 conditioned media on the proliferation of Raji cells and OKT3 hybridoma cells were determined. Media were harvested, in which THP-1 cells were pre-treated without inhibitor (2) or with SB431542 (3), A83-01 (4), SIS3 (5), SB203580 (6) or PD98059 (7) and then treated with P4N for 12 h. The results are expressed as % viable cells relative to the control (NC, media from untreated THP-1 cells). All values are the means of triplicate samples±SEM. The significant differences in the results of inhibitor and P4N-treated groups compared with the untreated group are indicated by ***P<0.001.
Reverse transcription PCR. Human PBMCs or THP-1 cells were treated with P4N, and then the mRNA expression of INHBA and BAFF in these cells was measured by reverse transcription PCR. Briefly, total cellular RNA was extracted with Trizol reagent (Invitrogen) and reverse-transcribed into cDNA using the Superscript RT-kit (Invitrogen). The cDNA of INHBA and BAFF were then amplified by PCR. GAPDH cDNA in the samples was used to normalize the loading amounts in each reaction. […]
(ELISA stands for enzyme-linked immunosorbent assay.)

Assay [2] deals with THP-1 cells. Description: Gene expression profiling of P4N treated THP-1 cells, cDNA microarray. Conditions: THP-1 cells following P4N treatment. The class given is cell-based. As to the method:
Gene expression profiling and analysis. Amplification and labeling of RNA was performed with the Illumina®TotalPrep RNA Amplification Kit from Life Technologies (Ambion, Applied Biosystems, Foster City, Calif.) using 150 ng of RNA per sample. Labeled RNA (750 ng) was hybridized to Illumina HT-12 v4 Expression BeadChips (˜48,000 probes) and processed according to the manufacturer's protocol. Expression data underwent quality control and normalization by GenomeStudio (Illumina, San Diego, Calif.). Genes differentially expressed in the cells treated with P4N relative to the untreated cells were identified, with special emphasis given to genes involved in cytokine-cytokine receptor interaction (KEGG pathway). […] The identified genes were subjected to the Database for Annotation, Visualization and Integrated Discovery (DAVID) (david.abcc.ncifcrf.gov/) for Gene Ontology (GO) and KEGG pathway enrichment analysis. A P-value <0.05 was set as threshold of enrichment analysis.

Take `C[C@H](Cc1ccc(OCCN2CCCCC2)c(OCCN2CCCCC2)c1)[C@@H](C)Cc1ccc(OCCN2CCCCC2)c(OCCN2CCCCC2)c1` [P4N, meso-2,3-dimethyl-1,4-bis(3,4-[2-(piperidino)ethoxyphenyl])butane tetrakishydrochloride salt]: in the assay with THP-1 cells [1] (THP-1, 6 μM P4N), the “time of elevated BAFF expression” value was determined as 8 h and the “time of up-regulated mRNA expression of Activin A” value is reported as 2 h. Also, the “dose dependence of Activin A and BAFF mRNA and protein levels” value in the assay on THP-1 cells [1] (THP-1, increasing dosages of P4N, 12 h) is “dose-dependent manner”. Besides, in the assay with THP-1 cells [2], the “up-regulated genes of cytokine-cytokine interaction (KEGG pathway)” value came out at 26 and the “up-regulated genes of growth factor activity (GO: 0008083)” value stood at 10.

Source of the values: patent US20190111040A1, “IN VIVO AMELIORATION OF ENDOGENOUS ANTI-TUMOR AUTOANTIBODIES TARGETING SURFACE TUMOR ANTIGENS VIA LOW-DOSE P4N” (THE JOHNS HOPKINS UNIVERSITY, priority 2016, published 2019).
